Literature values as cited in patent US20100330150A1, “Orally Disintegrating Tablet Compositions Comprising Combinations of High and Low-Dose Drugs” (priority 2009, published 2010).

Tests used:
[1] = test system: serum protein; details: after normal therapeutic dosages

Plasma half-life (normal, healthy patients): 1 to 2.5 h
Time after which only traces of the drug are detectable (oral administration): about 8 hours
Time at which peak plasma concentrations are attained (oral administration): 30 to 60 min
Binding to serum protein [1]: about 25%
Structure (SMILES): CC(=O)Nc1ccc(O)cc1 [acetaminophen]
